Data: patent US20180042874A1, “METHOD FOR TREATING OSTEOPOROSIS” (China Medical University, priority 2016, published 2018)

Columns and labels:
[1] = system: osteoclast differentiation induced by receptor activator of nuclear factor κB ligand in RAW 264.7 cells; assay: Osteoclast differentiation test (tartrate-resistant acid phosphatase staining); format: cell-based, mouse
From the text: The present invention used monocyte/macrophage cell line RAW 264.7 from mouse as an experimental model of the osteoclast differentiation system. RAW 264.7 cells differentiated into osteoclasts in an environment containing receptor activator of nuclear factor κB ligand. RAW 264.7 was obtained from a tumor induced by Abelson murine leukemia virus and purchased from the American Type Culture Collection (ATCC; Rockville, Md.). To culture osteoclasts, RAW 264.7 cells were used, cultured in a 24-well plate, the number of cells in each well was 1×10^4 cell/ml and cultured in a medium containing 100 ng/ml of receptor activator of nuclear factor κB ligand or co-treated with different concentrations of the compound of formula I.
In order to simulate physiological functions of the bone, we simulated the in vivo environment and some hormones essential to differentiation were added. The hormone environment suitable for […] cells was simulated for osteoclast differentiation. […] Markers for osteoclast differentiation were evaluated by staining with tartrate-resistant acid phosphatase. […]
Osteoclast formation was detected by quantifying the staining positive rate of tartrate-resistant acid phosphatase (387-A, Sigma-Aldrich, St. Louis, Mo.). […]

JNK = assay: Western blot of MAPK pathway, phosphorylated JNK; format: cell-based, mouse; conditions: 10 μg/ml co-treated with 100 ng/ml RANKL, 0-60 minutes
Description: The effect of the compound of formula I on the protein expression of osteoclast MAPKs pathways induced by receptor activator of nuclear factor κB ligand was studied, experiments were performed by using the Western blot method; RAW 264.7 cells were rinsed in ice-cold PBS, cell lysis buffer was added, the components of the buffer solution included: 10 mM 4-(2-hydroxyethyl)-1-piperazineethanesulfonic acid (HEPES), 1.5 mM MgCl2, 0.5 mM dithiothreitol (DTT), 0.5 μg/ml leupeptin and 6.4% Nonidet P-40, reacted on ice for 15 minutes. The cells were scraped off with a spatula, collected into a 1.5 ml centrifuge tube, the cells were thoroughly broken by using a shaker; centrifuged at 12,000 rpm, 4° C. for 10 minutes; supernatant was added into a new 1.5 ml centrifuge tube; boiled with IX sodiumdodecyl sulfate (SDS) sample buffer, followed by electrophoresis using 10 to 12% SDS-PAGE. […] The transfer membrane was rinsed again and the membrane loaded with chemical luminescence reagent ECL was allowed to react with a photosensitive sheet in a darkroom for a suitable period of time, the photosensitive sheet then reacted with the developer. After the photosensitive sheet was exposed to light a band-shaped antibody-binding proteins was observed, quantified by the density of the bands. […]

Q: `CNC(=O)N[C@]1(C)CCC[C@@]2(C)C3CC[C@@]4(C)C[C@]3(CCC21)CC4=O` (single isomer, unassigned; ent-16) [compound of formula I, ent-16-oxobeyeran-19-N-methylureido] was tested. Which “osteoclast differentiation over time (TRAP-positive multinucleated cells)” value ([1]; 10 μg/ml co-treated with 100 ng/ml RANKL, 2, 4, 6 days) did it give?
A: significant and inhibitory effect

Q: And the “level of osteoclast differentiation (TRAP-positive multinucleated cells)” value ([1]; 10 μg/ml co-treated with 100 ng/ml RANKL, 6 days)?
A: decrease in the level of osteoclast differentiation

Q: What about the “expression of phosphorylated JNK” value (JNK) of the same compound?
A: decreased
